Experimental data taken from PMC9814232, “Structural insights into the potency and selectivity of covalent pan-FGFR inhibitors” (Communications Chemistry, 2022).
pIC50: −log10 of the molar value. Each block holds one compound with its values, some of them ahead of it.

Key:
[1] = system: FGFR gatekeeper mutations; settings: cited from earlier work
[2] = molecular target: T1, SRC (Gallus gallus, UniProt P00523); assay: ADP-Glo kinase inhibition assay, SRC; format: biochemical, chicken; settings: for pIC50: kinase activity, ADP-Glo, 10 μM ATP, n = 3
T1 construct: chicken SRC (residues 251−533); 6×His (N, cleaved yes); made in house; host or cells: E. coli BL21 (DE3), co-expressed with YOPH
Method: (§1) FGFRs, SRC and HCK were prepared as previously described[31]–[33]. […] The primers were synthesized by Tsingke Biotechnolog Co., Ltd., and the sequences were listed in Supplementary Table 2. Then plasmid was transfected into E. coli BL21 (DE3) cells and co-expressed with YOPH to get the non-phosphorylated proteins. Cells were grown in LB at 37 °C and induced for 16 h with 0.5 mM IPTG at 18 °C. Cells were harvested by centrifugation for next purification. All steps of purification were performed at 4 °C. Proteins were first purified by Ni-NTA affinity chromatography, and then 6×His tag was removed by PreScission or TEV protease. […] Anion exchange chromatography (Mono Q) and size exclusion chromatography (SEC) were exploited for further purification. The purified FGFRs proteins were stored in the buffer containing 20 mM tris-HCl pH 8.0, 150 mM NaCl, and 1 mM TCEP, while SRC and HCK proteins in the buffer containing 20 mM tris-HCl pH 8.0, 150 mM NaCl, 5% (v/v) glycerol, and 1 mM TCEP. The purified proteins were concentrated to about 5–15 mg/mL and stored at −80 °C for subsequent studies.
(§2) The ADP-Glo^TM Kinase Assay Kit (Part No #V9101) was purchased from Promega. The experiments were performed according to the manufacturer’s instructions. All kinase inhibition assays were performed with optimized kinase assay buffer consisting of 40 mM Tris-HCl (pH ranging from 7.5 to 8.0), 20 mM MgCl2, 20 mM NaCl, 0.1 mg/mL BSA, 1 mM TCEP, and 4% DMSO[34]. […] Second, 5×ATP plus poly (4:1 Glu, Tyr) peptides (abcam, Part No #ab204877) were added to start the kinase reactions. The final reaction consisted of 0.04 μM kinase, 50 μM Tyr4 peptide and 10 μM ATP in kinase buffer. Then the reactions were terminated by the addition of stop buffer ADP-Glo after half an hour of incubation. […] Finally, […] was measured on a multimode plate reader (Perkin-Elmer) after the addition of detection reagent for half an hour to one hour. IC50 values were determined using a three-parameter log [Inhibitor] versus response model in GraphPad Prism software.

[3] = molecular target: T2, FGFR4 (Homo sapiens, UniProt P22455); assay: ADP-Glo kinase inhibition assay, FGFR4; format: biochemical; settings: kinase activity, 10 μM ATP, n = 3
T2 construct: FGFR4 (residues 445−753); 6×His (N, cleaved yes); made in house; host or cells: E. coli BL21 (DE3), co-expressed with YOPH
T2 sequence (P22455 445-753): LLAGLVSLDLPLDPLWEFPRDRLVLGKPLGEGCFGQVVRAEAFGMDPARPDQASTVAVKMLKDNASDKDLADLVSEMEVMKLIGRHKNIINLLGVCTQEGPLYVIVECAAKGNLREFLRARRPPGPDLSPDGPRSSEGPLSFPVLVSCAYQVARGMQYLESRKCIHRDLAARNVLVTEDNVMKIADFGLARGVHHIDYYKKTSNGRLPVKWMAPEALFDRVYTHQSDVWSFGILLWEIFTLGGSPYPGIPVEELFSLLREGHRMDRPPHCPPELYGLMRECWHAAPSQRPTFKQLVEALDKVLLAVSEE
Method: as §1, with “The purified proteins were concentrated to about 5–15 mg/mL and stored at −80 °C for subsequent studies.” left out
(§3) The ADP-Glo^TM Kinase Assay Kit (Part No #V9101) was purchased from Promega. […] Finally, […] was measured on a multimode plate reader (Perkin-Elmer) after the addition of detection reagent for half an hour to one hour. IC50 values were determined using a three-parameter log [Inhibitor] versus response model in GraphPad Prism software.

[4] = molecular target: T3, FGFR1 (Homo sapiens, UniProt P11362); assay: ADP-Glo kinase inhibition assay, FGFR1; format: biochemical; settings: kinase activity, 10 μM ATP, n = 3
T3 construct: human FGFR1 (residues 456−765); 6×His (N, cleaved yes); made in house; host or cells: E. coli BL21 (DE3), co-expressed with YOPH
T3 sequence (P11362 456-765): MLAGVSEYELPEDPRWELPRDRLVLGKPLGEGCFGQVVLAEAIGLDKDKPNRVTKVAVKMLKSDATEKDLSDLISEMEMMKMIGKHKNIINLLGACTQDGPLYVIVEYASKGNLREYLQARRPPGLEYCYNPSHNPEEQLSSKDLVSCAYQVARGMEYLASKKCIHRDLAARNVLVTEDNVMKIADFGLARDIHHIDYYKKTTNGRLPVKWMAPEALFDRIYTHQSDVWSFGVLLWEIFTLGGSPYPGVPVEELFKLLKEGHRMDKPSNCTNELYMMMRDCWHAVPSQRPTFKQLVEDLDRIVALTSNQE

[5] = molecular target: T4, FGFR3(V555M) (Homo sapiens, UniProt P22607, V555M); assay: ADP-Glo kinase inhibition assay, FGFR3(V555M) gatekeeper mutant; format: biochemical
T4 construct: FGFR3 (residues 450−758); 6×His (N, cleaved yes); made in house; host or cells: E. coli BL21 (DE3), co-expressed with YOPH
T4 sequence (P22607 450-758 V555M): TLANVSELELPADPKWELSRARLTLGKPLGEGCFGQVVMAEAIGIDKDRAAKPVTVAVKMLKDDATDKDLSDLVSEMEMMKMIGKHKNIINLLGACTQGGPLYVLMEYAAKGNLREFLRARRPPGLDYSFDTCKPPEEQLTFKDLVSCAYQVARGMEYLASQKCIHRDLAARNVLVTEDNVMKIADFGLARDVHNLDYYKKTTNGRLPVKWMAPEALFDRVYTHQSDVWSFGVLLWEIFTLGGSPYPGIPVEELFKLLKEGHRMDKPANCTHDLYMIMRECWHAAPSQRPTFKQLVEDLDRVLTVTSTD

[6] = molecular target: T5, FGFR2(V564F) (Homo sapiens, UniProt P21802, V564F); assay: ADP-Glo kinase inhibition assay, FGFR2(V564F) gatekeeper mutant; format: biochemical
T5 construct: FGFR2 (residues 453−770); 6×His (N, cleaved yes); made in house; host or cells: E. coli BL21 (DE3), co-expressed with YOPH
T5 sequence (P21802 453-770 V564F): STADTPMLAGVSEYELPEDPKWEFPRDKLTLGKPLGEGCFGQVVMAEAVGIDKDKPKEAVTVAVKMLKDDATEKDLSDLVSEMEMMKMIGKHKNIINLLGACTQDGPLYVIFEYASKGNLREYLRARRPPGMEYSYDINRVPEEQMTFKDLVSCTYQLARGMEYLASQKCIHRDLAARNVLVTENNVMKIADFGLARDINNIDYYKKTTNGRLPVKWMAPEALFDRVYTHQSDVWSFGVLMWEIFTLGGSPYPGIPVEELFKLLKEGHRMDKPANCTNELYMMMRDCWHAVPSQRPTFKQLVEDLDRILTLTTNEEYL

[7] = molecular target: T6, SRC(C277A) (Gallus gallus, UniProt P00523, C277A); assay: ADP-Glo kinase inhibition assay, SRC(C277A); format: biochemical, chicken; settings: for pIC50: kinase activity, ADP-Glo, 10 μM ATP, n = 3
T6 construct: chicken SRC (residues 251−533); made in house; host or cells: E. coli BL21 (DE3), co-expressed with YOPH
Method: as §1, §2

[8] = molecular target: T7, FGFR1(V561M) (Homo sapiens, UniProt P11362, V561M); assay: ADP-Glo kinase inhibition assay, FGFR1(V561M) gatekeeper mutant; format: biochemical; settings: kinase activity, 10 μM ATP, n = 3
T7 construct: human FGFR1 (residues 456−765); 6×His (N, cleaved yes); made in house; host or cells: E. coli BL21 (DE3), co-expressed with YOPH
T7 sequence (P11362 456-765 V561M): as the sequence (P11362 456-765) above, with V106M counted along it

[9] = molecular target: T8, FGFR3 (Homo sapiens, UniProt P22607); assay: ADP-Glo kinase inhibition assay, FGFR3; format: biochemical; settings: kinase activity, 10 μM ATP, n = 3
T8 construct: FGFR3 (residues 450−758); 6×His (N, cleaved yes); made in house; host or cells: E. coli BL21 (DE3), co-expressed with YOPH
T8 sequence (P22607 450-758): as the sequence (P22607 450-758 V555M) above, with M106V counted along it
Method: as §1, with “The purified proteins were concentrated to about 5–15 mg/mL and stored at −80 °C for subsequent studies.” left out
as §3

[10] = molecular target: T9, FGFR2 (Homo sapiens, UniProt P21802); assay: ADP-Glo kinase inhibition assay, FGFR2; format: biochemical; settings: kinase activity, 10 μM ATP, n = 3
T9 construct: FGFR2 (residues 453−770); 6×His (N, cleaved yes); made in house; host or cells: E. coli BL21 (DE3), co-expressed with YOPH
T9 sequence (P21802 453-770): as the sequence (P21802 453-770 V564F) above, with F112V counted along it

[11] = molecular target: T1, SRC; assay: MALDI-TOF MS covalent adduct formation, SRC; format: binding, chicken; settings: protein:inhibitor 1:2, overnight, 4 °C
Method: as §1

[12] = molecular target: T10, HCK (Homo sapiens, UniProt P08631); assay: ADP-Glo kinase inhibition assay, HCK; format: biochemical; settings: kinase activity, 10 μM ATP, n = 3
T10 construct: human HCK (residues 247−526); 6×His (N, cleaved yes); made in house; host or cells: E. coli BL21 (DE3), co-expressed with YOPH
T10 sequence (P08631 247-526): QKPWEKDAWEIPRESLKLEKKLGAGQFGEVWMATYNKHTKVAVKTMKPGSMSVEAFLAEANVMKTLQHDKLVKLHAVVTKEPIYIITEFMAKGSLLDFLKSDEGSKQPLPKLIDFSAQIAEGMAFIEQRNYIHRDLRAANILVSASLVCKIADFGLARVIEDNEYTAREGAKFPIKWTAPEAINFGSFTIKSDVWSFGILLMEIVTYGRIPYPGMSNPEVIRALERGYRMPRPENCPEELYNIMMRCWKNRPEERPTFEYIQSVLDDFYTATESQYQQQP
Method: as §1, with “The purified proteins were concentrated to about 5–15 mg/mL and stored at −80 °C for subsequent studies.” left out
as §3

[13] = molecular target: T11, YES (Homo sapiens, UniProt P07947); assay: ADP-Glo kinase inhibition assay, YES; format: biochemical; settings: for pIC50: kinase activity, ADP-Glo, 10 μM ATP, n = 3
T11 construct: purchased Carna 08-175
T11 sequence (P07947 whole entry): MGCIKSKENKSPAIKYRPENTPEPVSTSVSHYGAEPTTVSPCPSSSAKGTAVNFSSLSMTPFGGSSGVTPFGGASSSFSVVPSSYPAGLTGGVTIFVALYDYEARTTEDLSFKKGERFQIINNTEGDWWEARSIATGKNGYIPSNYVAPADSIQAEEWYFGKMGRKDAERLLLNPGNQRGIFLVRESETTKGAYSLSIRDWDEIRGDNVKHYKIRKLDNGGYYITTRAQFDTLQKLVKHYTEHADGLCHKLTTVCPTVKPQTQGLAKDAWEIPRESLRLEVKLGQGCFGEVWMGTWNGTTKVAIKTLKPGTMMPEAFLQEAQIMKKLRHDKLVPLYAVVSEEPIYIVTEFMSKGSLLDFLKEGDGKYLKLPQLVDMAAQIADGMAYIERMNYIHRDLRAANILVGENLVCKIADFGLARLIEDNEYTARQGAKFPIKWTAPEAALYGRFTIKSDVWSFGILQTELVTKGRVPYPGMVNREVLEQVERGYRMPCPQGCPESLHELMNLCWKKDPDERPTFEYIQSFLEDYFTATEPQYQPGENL
Method: as §1, §2

[14] = molecular target: T12, FGFR4(V550L) (Homo sapiens, UniProt P22455, V550L); assay: ADP-Glo kinase inhibition assay, FGFR4(V550L) gatekeeper mutant; format: biochemical; settings: for pIC50: kinase activity, ADP-Glo, 10 μM ATP, n = 3
T12 construct: FGFR4 (residues 445−753); 6×His (N, cleaved yes); made in house; host or cells: E. coli BL21 (DE3), co-expressed with YOPH
T12 sequence (P22455 445-753 V550L): as the sequence (P22455 445-753) above, with V106L counted along it

[15] = system: advanced solid tumors; settings: pretreated patients with advanced solid tumors, phase 1 dose-escalation; cited from earlier work
[16] = kinase activity, ADP-Glo, 10 μM ATP, n = 3

Compound: CCN1CCN(c2ccc(Nc3cc(N(C)C(=O)Nc4c(Cl)c(OC)cc(OC)c4Cl)ncn3)cc2)CC1 [BGJ398, 3-(2,6-dichloro-3,5-dimethoxy-phenyl)-1-{6-[4-(4-ethyl-piperazin-1-yl)-phenylamino]-pyrimidin-4-yl}-1-methyl-urea]
- potency against FGFR gatekeeper mutations (in words) [1]: little potency

- pIC50 [2]: 6.48
- pIC50 [3]: 7.68
- pIC50 [4]: 8.19
- fold reduction of potency, FGFR3(V555M) vs wild type ([5]; IC50 mutant relative to wild-type FGFR3): 15 fold
- pIC50 [5, 16]: 7.01
- fold decrease in potency, FGFR2(V564F) vs wild type ([6]; IC50 mutant relative to wild-type FGFR2): 95 fold
- pIC50 [6, 16]: 6.56
- pIC50 [7]: < 5.30
- potency against SRC(C277A) (in words) ([7]; kinase assay): lost their potency
- pIC50 [8]: 6.67
- pIC50 [9]: 8.17
- pIC50 [10]: 8.54
- mass shift of SRC protein (covalent adduct) [11]: mass shifts were observed
- pIC50 [12]: < 5.30
- pIC50 [13]: 6.44
- fold decrease in potency, FGFR4(V550L) vs wild type ([14]; IC50 mutant relative to wild-type FGFR4): 12 fold
- pIC50 [14]: 6.59
Compound: C=CC(=O)Nc1ccc(CN2C(=O)N(c3cc(OC)cc(OC)c3)Cc3cnc(Nc4ccc(N5CCN(C)CC5)cc4)nc32)cc1 [FIIN-2]

Compound: C=CC(=O)N1CCN(CCCn2c(=O)c(-c3c(Cl)c(OC)cc(OC)c3Cl)cc3cnc(NC)nc32)CC1 [PRN1371, 8-(3-(4-Acryloylpiperazin-1-yl)propyl)-6-(2,6-dichloro-3,5-dimethoxyphenyl)-2-(methylamino)pyrido[2,3-d]pyrimidin-7(8H)-one]
- pIC50 [2]: < 5.30
- potency against SRC (in words) ([2]; kinase assay): negligible potency
- pIC50 [3]: 7.50
- pIC50 [7]: < 5.30
- potency against FGFR gatekeeper mutations (in words) [1]: little potency
- pIC50 [12]: < 5.30
- pIC50 [13]: < 5.30
- potency against YES (in words) ([13]; kinase assay): negligible potency
- pIC50 [14]: < 6.00
- effect on FGFR4(V550L) (in words) ([14]; kinase assay): little effect

Compound: C=CC(=O)N1CC[C@H](n2nc(C#Cc3cc(OC)cc(OC)c3)c3c(N)ncnc32)C1 [TAS-120]
- most common adverse events [15]: hyperphosphatemia, diarrhea and constipation
